Laboratory results published in PubChem BioAssay (NCI).
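Interpolation was linear, between the two tested concentrations surrounding the appropriate level; five concentrations were tested over 48 hours in 96-well plates. GI50 is the concentration that inhibits growth by half. TGI is the concentration that stops growth completely.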

What was measured:
Experiment in all cases: NCI-60 cell line screen, 48 h
786-0 renal = system: 786-0 renal
A498 renal = system: A498 renal
A549 NSCLC = system: A549 NSCLC
ACHN renal = system: ACHN renal
BT-549 breast = system: BT-549 breast
CAKI-1 renal = system: CAKI-1 renal
CCRF-CEM leukemia = system: CCRF-CEM leukemia
COLO 205 colon = system: COLO 205 colon
DU-145 prostate = system: DU-145 prostate
EKVX NSCLC = system: EKVX NSCLC
HCC-2998 colon = system: HCC-2998 colon
HCT-116 colon = system: HCT-116 colon
HCT-15 colon = system: HCT-15 colon
HL-60(TB) leukemia = system: HL-60(TB) leukemia
HOP-62 NSCLC = system: HOP-62 NSCLC
HOP-92 NSCLC = system: HOP-92 NSCLC
HS 578T breast = system: HS 578T breast
HT29 colon = system: HT29 colon
IGROV1 ovarian = system: IGROV1 ovarian
K-562 leukemia = system: K-562 leukemia
KM12 colon = system: KM12 colon
LOX IMVI melanoma = system: LOX IMVI melanoma
M14 melanoma = system: M14 melanoma
MALME-3M melanoma = system: MALME-3M melanoma
MCF7 breast = system: MCF7 breast
MDA-MB-231 breast = system: MDA-MB-231 breast
MDA-MB-435 = system: MDA-MB-435
MOLT-4 leukemia = system: MOLT-4 leukemia
NCI-H226 lung = system: NCI-H226 lung
NCI-H23 lung = system: NCI-H23 lung
NCI-H460 lung = system: NCI-H460 lung
NCI-H522 lung = system: NCI-H522 lung
NCI/ADR-RES ovarian = system: NCI/ADR-RES ovarian
OVCAR-3 ovarian = system: OVCAR-3 ovarian
OVCAR-4 ovarian = system: OVCAR-4 ovarian
OVCAR-5 ovarian = system: OVCAR-5 ovarian
OVCAR-8 ovarian = system: OVCAR-8 ovarian
PC-3 prostate = system: PC-3 prostate
RPMI-8226 leukemia = system: RPMI-8226 leukemia
RXF 393 renal = system: RXF 393 renal
SF-268 CNS = system: SF-268 CNS
SF-295 CNS = system: SF-295 CNS
SF-539 CNS = system: SF-539 CNS
SK-MEL-2 melanoma = system: SK-MEL-2 melanoma
SK-MEL-28 melanoma = system: SK-MEL-28 melanoma
SK-MEL-5 melanoma = system: SK-MEL-5 melanoma
SK-OV-3 ovarian = system: SK-OV-3 ovarian
SN12C renal = system: SN12C renal
SNB-19 CNS = system: SNB-19 CNS
SNB-75 CNS = system: SNB-75 CNS
SR leukemia = system: SR leukemia
SW-620 colon = system: SW-620 colon
T-47D breast = system: T-47D breast
TK-10 renal = system: TK-10 renal
U251 CNS = system: U251 CNS
UACC-257 melanoma = system: UACC-257 melanoma
UACC-62 melanoma = system: UACC-62 melanoma
UO-31 renal = system: UO-31 renal

COc1ccc(/C(=N\NC(N)=S)c2ccc(Cl)cc2)cc1OC
GI50 (786-0 renal): 7.54 µM | TGI (786-0 renal): 23.1 µM | GI50 (A498 renal): 5.93 µM | TGI (A498 renal): 13.4 µM | GI50 (A549 NSCLC): 5.94 µM | TGI (A549 NSCLC): 32.3 µM | GI50 (ACHN renal): 5.89 µM | TGI (ACHN renal): 29.2 µM | GI50 (BT-549 breast): 2.4 µM | TGI (BT-549 breast): 6.33 µM | GI50 (CAKI-1 renal): 3.28 µM | TGI (CAKI-1 renal): 17.1 µM | GI50 (CCRF-CEM leukemia): 2.63 µM | TGI (CCRF-CEM leukemia): 16.6 µM | GI50 (COLO 205 colon): 3.37 µM | TGI (COLO 205 colon): 10.8 µM | GI50 (DU-145 prostate): 5.95 µM | TGI (DU-145 prostate): 22.5 µM | GI50 (EKVX NSCLC): 4.95 µM | TGI (EKVX NSCLC): 28.3 µM | GI50 (HCC-2998 colon): 4.36 µM | TGI (HCC-2998 colon): 16.5 µM | GI50 (HCT-116 colon): 3.59 µM | TGI (HCT-116 colon): 15.6 µM | GI50 (HCT-15 colon): 2.06 µM | TGI (HCT-15 colon): 15.6 µM | GI50 (HL-60(TB) leukemia): 1.77 µM | TGI (HL-60(TB) leukemia): 8.05 µM | GI50 (HOP-62 NSCLC): 4.38 µM | TGI (HOP-62 NSCLC): 20.8 µM | GI50 (HOP-92 NSCLC): 4.67 µM | TGI (HOP-92 NSCLC): 17.4 µM | GI50 (HS 578T breast): 2.77 µM | TGI (HS 578T breast): 13.8 µM | GI50 (HT29 colon): 2.69 µM | TGI (HT29 colon): 9.48 µM | GI50 (IGROV1 ovarian): 4.11 µM | TGI (IGROV1 ovarian): 20.4 µM | GI50 (K-562 leukemia): 1.04 µM | TGI (K-562 leukemia): > 41.1 µM | GI50 (KM12 colon): 3.56 µM | TGI (KM12 colon): 19.4 µM | GI50 (LOX IMVI melanoma): 4.41 µM | TGI (LOX IMVI melanoma): 18.2 µM | GI50 (M14 melanoma): 2.93 µM | TGI (M14 melanoma): 15.2 µM | GI50 (MALME-3M melanoma): 3.54 µM | TGI (MALME-3M melanoma): 19.2 µM | GI50 (MCF7 breast): 3.12 µM | TGI (MCF7 breast): 15.5 µM | GI50 (MDA-MB-231 breast): 4.48 µM | TGI (MDA-MB-231 breast): 18.2 µM | GI50 (MDA-MB-435): 0.638 µM | TGI (MDA-MB-435): 2.84 µM | GI50 (MOLT-4 leukemia): 4.91 µM | TGI (MOLT-4 leukemia): 29.2 µM | GI50 (NCI-H226 lung): 2.72 µM | TGI (NCI-H226 lung): 17.6 µM | GI50 (NCI-H23 lung): 4.7 µM | TGI (NCI-H23 lung): 18.2 µM | GI50 (NCI-H460 lung): 3.58 µM | TGI (NCI-H460 lung): 13 µM | GI50 (NCI-H522 lung): 1.37 µM | TGI (NCI-H522 lung): 4.62 µM | GI50 (NCI/ADR-RES ovarian): 2.34 µM | TGI (NCI/ADR-RES ovarian): 9.89 µM | GI50 (OVCAR-3 ovarian): 3.47 µM | TGI (OVCAR-3 ovarian): 14.9 µM | GI50 (OVCAR-4 ovarian): 7.01 µM | TGI (OVCAR-4 ovarian): 40.7 µM | GI50 (OVCAR-5 ovarian): 5.44 µM | TGI (OVCAR-5 ovarian): 21.3 µM | GI50 (OVCAR-8 ovarian): 4.41 µM | TGI (OVCAR-8 ovarian): 20.5 µM | GI50 (PC-3 prostate): 3.76 µM | TGI (PC-3 prostate): 20.1 µM | GI50 (RPMI-8226 leukemia): 3.4 µM | TGI (RPMI-8226 leukemia): 16.4 µM | GI50 (RXF 393 renal): 1.94 µM | TGI (RXF 393 renal): 7.26 µM | GI50 (SF-268 CNS): 8.87 µM | TGI (SF-268 CNS): 30.3 µM | GI50 (SF-295 CNS): 3.56 µM | TGI (SF-295 CNS): 14.2 µM | GI50 (SF-539 CNS): 2.63 µM | TGI (SF-539 CNS): 9.11 µM | GI50 (SK-MEL-2 melanoma): 1.67 µM | TGI (SK-MEL-2 melanoma): 4.67 µM | GI50 (SK-MEL-28 melanoma): 6.95 µM | TGI (SK-MEL-28 melanoma): 21.7 µM | GI50 (SK-MEL-5 melanoma): 4.14 µM | TGI (SK-MEL-5 melanoma): 14 µM | GI50 (SK-OV-3 ovarian): 3.38 µM | TGI (SK-OV-3 ovarian): 16.1 µM | GI50 (SN12C renal): 4.63 µM | TGI (SN12C renal): 18.5 µM | GI50 (SNB-19 CNS): 5.22 µM | TGI (SNB-19 CNS): 21.5 µM | GI50 (SNB-75 CNS): 1.69 µM | TGI (SNB-75 CNS): 6.73 µM | GI50 (SR leukemia): 2.43 µM | TGI (SR leukemia): > 39.7 µM | GI50 (SW-620 colon): 3.65 µM | TGI (SW-620 colon): 17.5 µM | GI50 (T-47D breast): 3.16 µM | TGI (T-47D breast): 25 µM | GI50 (TK-10 renal): 11.1 µM | TGI (TK-10 renal): 31.6 µM | GI50 (U251 CNS): 3.71 µM | TGI (U251 CNS): 15.4 µM | GI50 (UACC-257 melanoma): 8.13 µM | TGI (UACC-257 melanoma): 26.2 µM | GI50 (UACC-62 melanoma): 3.7 µM | TGI (UACC-62 melanoma): 19.6 µM | GI50 (UO-31 renal): 3.34 µM | TGI (UO-31 renal): 16.6 µM
